The text below walks through data of patent publication US8673913B2, “SHP-2 phosphatase inhibitor” (Case Western Reserve University, priority 2009, dated 2014).

One data set deals with Ba/F3 cells. Briefly: Ba/F3 cell proliferation assay (IL-3, MTS). It counts as cell-based, murine. The method, then:
To test the effects of the active compounds on IL-3-induced cellular response, Ba/F3, an IL-3 dependent murine pro-B lymphoma cell line, was used for the assay. Ba/F3 cells were seeded into 96-well plates (2×10^4 cells/well) in the RPMI-1640 medium supplemented with 10% fetal bovine serum (FBS), recombinant mouse IL-3 (1 ng/mL), and test compounds ([…]). Three days later, cell number was determined using the MTS cell proliferation kit (Promega Life Science, Madison, Wis.).
To test the effects of the active compounds on SHP-2-mediated cellular proliferation, Ba/F3, an IL-3 dependent hematopoietic cell line, mouse embryonic fibroblasts (MEFs), and H661 lung cancer cell line with SHP-2 activating mutation N58S were used for the assays. Cells were seeded into 96-well plates (2×10^4 cells/well) in the RPMI-1640 (for Ba/F3 cells) or DMEM (for MEFs and H661 cells) medium supplemented with 10% fetal bovine serum (FBS) and test compounds at various concentrations. For the Ba/F3 cell assay, recombinant mouse IL-3 (1 ng/mL) was included in the culture medium. Two days later, cell number was determined using the MTS cell proliferation kit (Promega Life Science, Madison, Wis.).

Data set [1] has as its target T1, SHP-2 PTP domain GST fusion protein (Homo sapiens, UniProt Q06124).
T1 sequence (Q06124 247-517 limits assumed): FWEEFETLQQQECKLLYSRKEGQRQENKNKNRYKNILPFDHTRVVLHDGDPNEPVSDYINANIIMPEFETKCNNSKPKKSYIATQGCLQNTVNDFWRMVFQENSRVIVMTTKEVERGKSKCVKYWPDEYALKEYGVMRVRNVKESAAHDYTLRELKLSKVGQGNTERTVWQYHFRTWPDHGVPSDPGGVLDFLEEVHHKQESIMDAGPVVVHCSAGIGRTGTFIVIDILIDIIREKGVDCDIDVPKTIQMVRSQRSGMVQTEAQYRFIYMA
Briefly: in vitro protein tyrosine phosphatase assay, SHP-2 (Malachite Green). Format: biochemical. Further details: SHP-2 PTP domain GST fusion protein purified in house was used as the enzyme; made in house. To be noted: for inhibition at 100 µM: compound at 100 μM, read-out: inhibition of SHP-2 enzymatic activity. The source says:
(§1) Candidate compounds were screened using the in vitro protein tyrosine phosphatase (PTP) assay kit (Sigma, St. Lois, Mo.). SHP-2 PTP domain GST fusion protein purified in house was used as the enzyme and a phospho-peptide corresponding to the surrounding sequence of pTyr^1146 in the insulin receptor (Thr-Arg-Asp-Ile-Tyr[PO3H2]-Glu-Thr-Asp-Tyr-Tyr) were used as the substrate. The assay determines free phosphate generated by dephosphorylation of the PTP substrate using the Malachite Green reagent. Briefly, 0.5 μg of GST-SHP-2 PTP was incubated in 40 μL assay buffer (25 mM Tris-HCl, PH7.4, 50 mM NaCl, 5 mM DTT, and 2.5 mM EDTA) with test compounds at various concentrations or DMSO at room temperature for 30 min. The PTP substrate was then added to a final concentration of 0.2 mM. The system was incubated at 30° C. for 30 min. Finally, 50 μl of Malachite Green solution was added and OD620 was measured after 5 min. In the phosphatase assays for SHP-1, CD45, TC-PTP, PTP-MEG2 (PTPN9), and LAR (PTPRF), procedures were similar, with the exception that GST-SHP-1, GST-CD45 cytoplasmic domain, GST-TC-PTP, GST-PTP-MEG2 PTP domain, and GST-LAR PTP domain purchased from Biomol International, L.P. (Plymouth Meeting, Pa.) were used instead as the enzymes.
Candidate compounds identified by CADD were screened by the in vitro tyrosine phosphatase assay as described in the Experimental Section. The GST-SHP-2 PTP domain fusion protein was incubated with the compounds at room temperature for 30 min before the phospho-peptide substrate was added to the assay systems, allowing compounds to bind to target sites in SHP-2. Each test compound was dissolved in DMSO. Initial concentration of the test compounds was 100 μM. In the experimental assay, DMSO was included as the negative control and sodium orthovanadate (100 μM), a general non-specific tyrosine phosphatase inhibitor, was used as the positive control. From the 165 commercially available compounds tested, we identified 9 compounds that inhibit SHP-2 catalytic activity with various efficiencies (FIG. 3A). […] The inhibitory effects of the compounds were dose-dependent.

A further data set deals with T2, GST-TC-PTP (Homo sapiens, UniProt P17706).
T2 construct: purchased Biomol International, L.P. (Plymouth Meeting, Pa.)
T2 sequence (P17706 1-415): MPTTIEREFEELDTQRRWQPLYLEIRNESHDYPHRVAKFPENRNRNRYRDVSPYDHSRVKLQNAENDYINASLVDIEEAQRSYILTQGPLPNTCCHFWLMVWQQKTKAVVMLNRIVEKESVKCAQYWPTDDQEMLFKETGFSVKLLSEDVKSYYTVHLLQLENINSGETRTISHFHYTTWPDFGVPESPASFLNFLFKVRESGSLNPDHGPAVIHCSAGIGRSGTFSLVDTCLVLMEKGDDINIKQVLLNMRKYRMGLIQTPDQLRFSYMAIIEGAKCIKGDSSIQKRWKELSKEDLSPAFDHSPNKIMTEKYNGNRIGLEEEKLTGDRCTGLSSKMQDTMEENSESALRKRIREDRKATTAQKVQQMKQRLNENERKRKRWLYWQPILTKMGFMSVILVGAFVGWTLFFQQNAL
Description: in vitro phosphatase assay, TC-PTP. It counts as biochemical. The note with it: for inhibition of TC-PTP: FIG. 4. The method, then: as §1, with “SHP-2 PTP domain GST fusion protein purified in house was used as the enzyme and a phospho-peptide corresponding to the surrounding sequence of pTyr^1146 in the insulin receptor (Thr-Arg-Asp-Ile-Tyr[PO3H2]-Glu-Thr-Asp-Tyr-Tyr) were used as the substrate.” left out

The target in the next data set is T3, GST-SHP-1 (Homo sapiens, UniProt P29350).
T3 construct: purchased Biomol International, L.P. (Plymouth Meeting, Pa.)
Description: in vitro phosphatase assay, SHP-1. Format: biochemical. The note with it: for functional specificity SHP-2 vs. SHP-1: phosphatase assays at the indicated concentrations.
Text: as §1

T3 sequence (P29350 whole entry): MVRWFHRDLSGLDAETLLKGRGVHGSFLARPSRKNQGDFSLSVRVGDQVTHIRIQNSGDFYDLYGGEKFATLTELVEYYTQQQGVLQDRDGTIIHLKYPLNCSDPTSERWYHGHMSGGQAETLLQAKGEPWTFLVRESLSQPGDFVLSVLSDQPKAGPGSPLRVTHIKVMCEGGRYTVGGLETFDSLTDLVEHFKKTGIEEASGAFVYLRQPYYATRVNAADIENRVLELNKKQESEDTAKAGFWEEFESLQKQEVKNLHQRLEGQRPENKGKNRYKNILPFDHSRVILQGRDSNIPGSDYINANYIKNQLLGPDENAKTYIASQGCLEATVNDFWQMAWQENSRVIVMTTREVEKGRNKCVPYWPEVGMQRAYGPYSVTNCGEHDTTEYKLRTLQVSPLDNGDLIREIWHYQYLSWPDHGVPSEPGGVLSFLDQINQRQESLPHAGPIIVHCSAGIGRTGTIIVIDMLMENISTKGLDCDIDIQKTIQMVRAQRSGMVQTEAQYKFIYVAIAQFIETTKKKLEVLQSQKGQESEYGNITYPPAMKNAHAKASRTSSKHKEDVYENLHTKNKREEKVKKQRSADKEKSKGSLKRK

In the case of `Cc1cc(C)c2[nH]c3nc(SCC(=O)Nc4cccc5ccccc45)nnc3c2c1` [#324], the “SHP-2 mediated proliferative response to IL-3” value in the data set on Ba/F3 cells (IL-3 1 ng/mL, 48 hours) is on record as “inhibit”. Besides, in data set [1] (Table 1 and FIG. 10), the “selectivity for SHP-2 compared to other PTPases” value is on record as “selectively inhibits SHP-2 compared to other PTPases”. For the same compound, the 50% inhibitory concentration (IC50) in data set [1] (read-out: IC50 SHP2) is 13.9 µM; against GST-TC-PTP it was 39.9 µM; at GST-SHP-1 (read-out: IC50 SHP1) it was 37.7 µM. For the same compound, the “functional specificity SHP-2 vs. SHP-1” value at GST-SHP-1 is “high functional specificity for SHP-2 over SHP-1”.
Consider `Cc1cc(C)c2c(c1)[nH]c1nnc(SCC(=O)NCc3cccs3)nc12` [#220], for which the acute cytotoxicity result in the data set with Ba/F3 cells is “modest acute cytotoxicity”. Also, in data set [1], the inhibition at 100 µM was 50%. On GST-TC-PTP, the “inhibition of TC-PTP” value is on record as “slight inhibition”. Also, at GST-SHP-1, the “functional specificity SHP-2 vs. SHP-1” value was “selectively inhibited SHP-2 vs. SHP-1”.
In the case of `NS(=O)(=O)c1ccc(CCNC(=O)c2ccc(Cn3c(=S)[nH]c4ccc(Br)cc4c3=O)cc2)cc1` [#216], the IL-3-stimulated cell growth entry with Ba/F3 cells (100 or 200 μM, IL-3 1 ng/mL, 72 hours) is listed as “greatly decreased”. The inhibition at 100 µM in data set [1] is 55%. For the same compound, the “inhibition of TC-PTP” value against GST-TC-PTP is reported as “slight inhibition”. Moreover, at GST-SHP-1, the “functional specificity SHP-2 vs. SHP-1” value was “selectively inhibited SHP-2 vs. SHP-1”.

Broadly, the IC50 is the concentration that gives 50% inhibition. A word on the inhibition: it is the change of the read-out against control, counted positive when it falls.
